Where two headings read alike, the source gives them in different places.
Target: T1, RANTES/MIP-1α chemokine receptor (CCR1) in THP-1 cell membranes (Homo sapiens, UniProt P32246)
T1 construct: Membranes were prepared from THP-1 cells (ATCC #TIB202); host or cells: THP-1 cells (membrane preparation)
T1 sequence (P32246 1-355): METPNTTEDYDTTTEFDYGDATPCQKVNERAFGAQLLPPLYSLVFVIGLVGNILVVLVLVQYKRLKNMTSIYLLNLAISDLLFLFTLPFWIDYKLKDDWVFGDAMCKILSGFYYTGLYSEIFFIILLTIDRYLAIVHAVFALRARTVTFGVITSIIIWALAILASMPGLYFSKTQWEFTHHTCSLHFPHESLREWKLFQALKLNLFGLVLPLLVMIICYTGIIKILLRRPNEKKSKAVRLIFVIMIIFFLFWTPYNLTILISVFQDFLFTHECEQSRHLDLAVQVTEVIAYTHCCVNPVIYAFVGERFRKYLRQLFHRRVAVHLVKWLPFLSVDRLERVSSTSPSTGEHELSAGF
Test: Receptor binding assay: 125I-RANTES or 125I-MIP-1α binding to THP-1 cell membranes

[1] = inhibitor concentration required for 50% inhibition of specific binding, 125I-RANTES or 125I-MIP-1α as ligand, THP-1 cell membranes, read-out: IC50

Row | Compound | IC50 [µM] | IC50 [1] [µM]
1 | COC(=O)C1(Nc2ccc(Cl)cc2)CCN(CCC=C2c3cc(C(C)(C)O)ccc3OCc3ncccc32)CC1 [Example 465, 4-(4-Chloro-phenylamino)-1-{3-[7-(1-hydroxy-1-methyl-ethyl)-11H-10-oxa-1-aza-dibenzo[a,d]cyclohepten-5-ylidene]-propyl}-piperidine-4-carboxylic acid methyl ester] | < 1 | –
2 | O=C1c2ccccc2C(=CCCN2CCC(O)(c3ccc(Cl)cc3)CC2)c2ccccc2N1CCCO [Example 42, 4-(4-Chlorophenyl)-1-[3-(6,11-dihydro-5-(3-hydroxypropyl)-6-oxo-5H-dibenz[b,e]azepin-11-ylidene)propyl]piperidin-4-ol] | – | < 1
3 | COC(=O)CN(Cc1ccc(Cl)cc1)C1CCN(CCC=C2c3cc(C(C)(C)O)ccc3OCc3ncccc32)CC1 [Example 500, [(4-Chloro-benzyl)-(1-{3-[7-(1-hydroxy-1-methyl-ethyl)-11H-10-oxa-1-aza-dibenzo[a,d]cyclohepten-5-ylidene]-propyl}-piperidin-4-yl)-amino]-acetic acid methyl ester] | – | < 10
4 | O=C1c2ccccc2C(=CCCN2CCC(O)(c3ccc(Cl)cc3)CC2)c2ccccc2N1Cc1ccccc1 [Example 12, 1-[3-(5-Benzyl-6,11-dihydro-6-oxo-5H-dibenz[b,e]azepin-11-ylidene)propyl]-4-(4-chlorophenyl)-piperidin-4-ol] | – | < 1
5 | OCCCc1ccc2c(c1)C(=CCCN1CCC(O)(c3ccc(Cl)cc3)CC1)c1cccnc1CO2 [Example 289, 4-(4-Chlorophenyl)-1-[3-(7-(1-(3-hydroxy)propyl)-5,11-dihydro[1]benzoxepino[2,3-b]pyridin-5-ylidene)propyl]piperidin-4-ol] | – | < 1
6 | 4-(4-Chlorophenyl)-1-[3-(7-dimethylaminocarbonyl-5,11-dihydro[1]benzoxepino[2,3-b]pyridin-5-ylidene)propyl]piperidin-4-ol [Example 198] | – | < 1
7 | O=C1Nc2ncccc2C(=CCCN2CCC(O)(c3ccc(Cl)cc3)CC2)c2ccccc21 [Example 55, 4-(4-Chlorophenyl)-1-[3-(10,11-dihydro-10-oxo-5H-pyrido[2,3-c][2]benzazepin-5-ylidene)propyl]piperidin-4-ol] | – | < 1
8 | COC(=O)COc1ccc2c(c1)C(=CCCN1CCC(O)(c3ccc(Cl)cc3)C(C)(C)C1)c1cccnc1CO2 (centres unmarked) [Example 514, (5-{3-[4-(4-Chloro-phenyl)-4-hydroxy-3,3-dimethyl-piperidin-1-yl]-propylidene}-5,11-dihydro-10-oxa-1-aza-dibenzo[a,d]cyclohepten-7-yloxy)-acetic acid methyl ester] | – | < 1
9 | CC1CN(CCC=C2c3cc(C(C)(C)O)ccc3OCc3ncccc32)CCC1(F)c1ccc(Cl)cc1 (centres unmarked) [Example 469, 2-(5-{3-[4-(4-Chloro-phenyl)-4-fluoro-3-methyl-piperidin-1-yl]-propylidene}-5,11-dihydro-10-oxa-1-aza-dibenzo[a,d]cyclohepten-7-yl)-propan-2-ol] | – | < 1
10 | CC(C)C(=O)N(Cc1ccc(Cl)cc1)C1CCN(CCC=C2c3cc(C(C)(C)O)ccc3OCc3ncccc32)C1 (centres unmarked) [Example 562, N-(4-Chloro-benzyl)-N-(1-{3-[7-(1-hydroxy-1-methyl-ethyl)-11H-10-oxa-1-aza-dibenzo[a,d]cyclohepten-5-ylidene]-propyl}-pyrrolidin-3-yl)-isobutyramide] | – | < 10
11 | CC(C)(O)c1ccc2c(c1)C(=CCCN1CCC(N=[N+]=[N-])(c3ccc(Cl)cc3)C(O)C1)c1cccnc1CO2 (centres unmarked) [Example 477, 4-Azido-4-(4-chloro-phenyl)-1-{3-[7-(1-hydroxy-1-methyl-ethyl)-11H-10-oxa-1-aza-dibenzo[a,d]cyclohepten-5-ylidene]-propyl}-piperidin-3-ol] | – | < 10
12 | OC1(c2ccc(Cl)cc2)CCN(CCC=C2c3ccccc3CCc3ccccc32)CC1 [Example 1, 4-(4-Chlorophenyl)-1-[3-(10,11-dihydro-5H-dibenzo[a,d]cycloheptene-5-ylidene)propyl]piperidin-4-ol] | – | < 1
13 | C=C(C)c1ccc2c(c1)C(=CCCN1CCC(c3ccc(Cl)cc3)(C(C)O)CC1)c1cccnc1CO2 (centres unmarked) [Example 499, 1-{4-(4-Chloro-phenyl)-1-[3-(7-isopropenyl-11H-10-oxa-1-aza-dibenzo[a,d]cyclohepten-5-ylidene)-propyl]-piperidin-4-yl}-ethanol] | – | < 10
14 | CCN1C(=O)CN([C@@H]2CCN(CCC=C3c4cc(C(C)(C)O)ccc4OCc4ncccc43)C2)Cc2ccc(Cl)cc21 [Example 535, (R)-8-Chloro-1-ethyl-4-(1-{3[7-(-hydroxy-1-methyl-ethyl)-11H-10-oxa-1-aza-dibenzo[a,d]cyclohepten-5-ylidene]-propyl}-pyrrolidine-3-yl)-1,3,4,5-tetrahydro-benzo[e][1,4]diazepin-2-one] | – | < 10
15 | CC(C)(O)c1ccc2c(c1)C(=CCCN1CC[C@@H](N3Cc4ccc(Cl)cc4C3)C1)c1cccnc1CO2 [Example 532] | – | < 2
16 | 1-[3-(7-Carbamoylmethyloxy-5,11-dihydro[1]benzoxepino[2,3-b]pyridin-5-ylidene)propyl]-4-(4-chlorophenyl)piperidin-4-ol [Example 181] | – | < 1

Row | Compound | IC50 [µM] | IC50 [1] [µM]
17 | 1-[3-(5,11-Dihydro-7-methoxy[1]benzoxepino[2,3-b]pyridin-5-ylidene)propyl]-4-(4-methoxyphenyl)piperidin-4-ol [Example 140] | – | > 10
18 | 4-(4-Chlorophenyl)-1-[3-(5,11-dihydro-7-(ethoxycarbonylmethyl)-oxycarbonyl-[1]benzoxepino[2,3-b]pyridin-5-ylidene) propyl]piperidine-4-ol [Example 424] | – | < 1
19 | 4-(7-Chloroindol-3-yl)-1-[3-(5,11-dihydro-7-methoxy[1]benzoxepino[2,3-b]pyridin-5-ylidene)propyl]piperidine [Example 186] | – | < 1
20 | 4-(4-Chlorophenyl)-1-[3-(5,11-dihydro-7-(2-hydroxyethyl)oxy[1]benzoxepino[2,3-b]pyridin-5-ylidene)propyl]piperidin-4-ol [Example 51] | – | < 1
21 | 1-{3-[7-(1-Hydroxy-1-methyl-ethyl)-11H-10-oxa-1-aza-dibenzo[a,d]cyclohepten-5-ylidene]-propyl}-4-phenyl-piperidin-4-ol [Example 488] | – | < 1
22 | 1-[3-(7-Chloro-5,11-dihydro[1]benzoxepino[2,3-b]pyridin-5-ylidene)propyl]-4-(4-chlorophenyl)piperidin-4-ol [Example 117] | – | < 1
23 | CCNC(=O)CN(Cc1ccc(Cl)cc1)C1CCN(CCC=C2c3cc(C(C)(C)O)ccc3OCc3ncccc32)C1 (centres unmarked) [Example 553, 2-[(4-Chloro-benzyl)-(1-{3-[7-(1-hydroxy-1-methyl-ethyl)-11H-10-oxa-1-aza-dibenzo[a,d]cyclohepten-5-ylidene]-propyl}-pyrrolidin-3-yl)-amino]-N-ethyl-acetamide] | – | < 1
24 | CC(=O)C1(c2ccc(Cl)cc2)CCN(CCC=C2c3cc(C(C)(C)O)ccc3OCc3ncccc32)CC1 [Example 457, 1-(4-(4-Chloro-phenyl)-1-{3-[7-(1-hydroxy-1-methyl-ethyl)-11H-10-oxa-1-aza-dibenzo[a,d]cyclohepten-5-ylidene]-propyl}-piperidin-4-yl)-ethanone] | – | < 1
25 | CC(C)N(Cc1ccc(Cl)cc1)C1CCN(CCC=C2c3cc(C(C)(C)O)ccc3OCc3ncccc32)C1 (centres unmarked) [Example 551, 2-[5-(3-{3-[(4-Chloro-benzyl)-isopropyl-amino]-pyrrolidin-1-yl}-propylidene)-5,11-dihydro-10-oxa-1-aza-dibenzo[a,d]cyclohepten-7-yl]-propan-2-ol] | – | < 1
26 | CC1(C)CN(CCC=C2c3cc(CC(O)CO)ccc3OCc3ncccc32)CCC1(O)c1ccc(Cl)cc1 (centres unmarked) [Example 518, 3-(5-{3-[4-(4-Chloro-phenyl)-4-hydroxy-3,3-dimethyl-piperidin-1-yl]-propylidene}-5,11-dihydro-10-oxa-1-aza-dibenzo[a, d]cyclohepten-7-yl)propane-1,2-diol] | – | < 1
27 | CC(C)(O)c1ccc2c(c1)C(=CCCN1CCC3(CC1)OC(=O)Nc1ccc(Cl)cc13)c1cccnc1CO2 [Example 520] | – | < 1
28 | 4-(4-Chlorophenyl)-1-[3-(7-dimethylaminocarbonylmethyl-5,11-dihydro[1]benzoxepino[2,3-b]pyridin-5-ylidene)propyl]piperidin-4-ol [Example 122] | – | < 1
29 | 4-Cyano-1-[3-(5,11-dihydro-7-methoxy[1]benzoxepino[2,3-b]pyridin-5-ylidene)propyl]-4-phenylpiperidine [Example 63] | – | < 10
30 | 4-(4-Chlorophenyl)-1-[3-(5,11-dihydro-7-ethoxycarbonyl-[1]benzoxepino[2,3-b]pyridin-5-ylidene) propyl]piperidine-4-ol [Example 423] | – | < 1
31 | CC(C)(O)c1ccc2c(c1)C(=CCCN1CCC(O)(c3ccc(Cl)cc3)CC1)c1ccccc1CO2 [Example 27, 4-(4-Chlorophenyl)-1-[3-(6,11-dihydro-2-(1-hydroxy-1-methyl)ethyldibenz[b,e]oxepin-11-ylidene)propyl]piperidin-4-ol] | – | < 1
32 | COC(=O)CN(Cc1ccc(Cl)cc1)C1CCN(CCC=C2c3cc(C(C)(C)O)ccc3OCc3ncccc32)C1 (centres unmarked) [Example 536, [(4-Chloro-benzyl)-(1-{3-[7-(1-hydroxy-1-methyl-ethyl)-11H-10-oxa-1-aza-dibenzo[a,d]cyclohepten-5-ylidene]-propyl}-pyrrolidin-3-yl)-amino]-acetic acid methyl ester] | – | < 1

Reference: patent US8653096B2, “Chemokine receptor antagonists and methods of use thereof” (Millennium Pharmaceuticals, Inc., priority 2001, dated 2014)
